Molecular target: hVR1 (Homo sapiens, UniProt Q8NER1)
Test: Calcium imaging assay (Fura2) of VR1 antagonists, proton stimulation
Type: cell-based
Conditions: HEK 293 cells expressing hVR1; for % Inhibition @ 1 μM: calcium ion influx induced by proton stimulation (pH 5.7); for IC50: calcium ion influx induced by proton stimulation
Description: VR1 protein is a heat-gated cation channel that exchanges about 10 calcium ions for every sodium ion resulting in neuronal membrane depolarization and elevated intracellular calcium ion levels. Therefore the functional activity of compounds at the VR1 receptor may be determined by measuring changes in intracellular calcium levels in 293 cells expressing capsaicin-insensitive VR1 receptor variants. A dual wavelength ratiometric dye, Fura2, was used as an indicator of relative levels of calcium ions in a 96 well format using a bench top scanning fluorometer with integrated fluidics and temperature control (Flex Station, Molecular Devices).
A dual wavelength ratiometric dye, Fura2, was used as an indicator of relative levels of [Ca2+] in a 96 well format using a bench top scanning fluorometer with integrated fluidics and temperature control (Flex Station, Molecular Devices).
HEK 293 cells expressing hVR1 were grown on PDL coated 96-well black-walled plates, in the presence of a DMEM medium containing 5% Penstrep, 5% Glutamax, 200 ug/mL Hygromycin, 5 μg/mL Blasticide and 10% heat inactivated FBS. Prior to assay, the cells were loaded with 5 μg/mL Fura2 in normal saline solution at 37° C. for 40 minutes. Cells were then washed with normal saline to remove the dye.
The assay consists of two stages; a pre-treatment phase followed by a treatment phase. In the pretreatment phase, 50 μl of a compound solution was added to the cells. Immediately following, 50 μl of the test compound in the presence of agonist (a saline solution plus 10 mM citric acid bufferd to pH 5.7 with HCl) was added. Fura2 was excited at […] to indicate relative calcium concentration. Changes in wavelength measurements were made throughout the course of the experiment in 4 second intervals over a period of 3 minutes. The fluorescence ratio from the excitations at […] was recorded for analysis. Responses were measured as peak fluorescence ratio after compound-agonist addition minus baseline fluorescence ratio prior to treatment and were calculated for each concentration tested using the SoftMaxPro software. Data was expressed as percentage inhibition calculated as follows: […]
A dose response curve was then determined, from which the ID50 of each compound was calculated.

Chain of hVR1 (Q8NER1 whole entry): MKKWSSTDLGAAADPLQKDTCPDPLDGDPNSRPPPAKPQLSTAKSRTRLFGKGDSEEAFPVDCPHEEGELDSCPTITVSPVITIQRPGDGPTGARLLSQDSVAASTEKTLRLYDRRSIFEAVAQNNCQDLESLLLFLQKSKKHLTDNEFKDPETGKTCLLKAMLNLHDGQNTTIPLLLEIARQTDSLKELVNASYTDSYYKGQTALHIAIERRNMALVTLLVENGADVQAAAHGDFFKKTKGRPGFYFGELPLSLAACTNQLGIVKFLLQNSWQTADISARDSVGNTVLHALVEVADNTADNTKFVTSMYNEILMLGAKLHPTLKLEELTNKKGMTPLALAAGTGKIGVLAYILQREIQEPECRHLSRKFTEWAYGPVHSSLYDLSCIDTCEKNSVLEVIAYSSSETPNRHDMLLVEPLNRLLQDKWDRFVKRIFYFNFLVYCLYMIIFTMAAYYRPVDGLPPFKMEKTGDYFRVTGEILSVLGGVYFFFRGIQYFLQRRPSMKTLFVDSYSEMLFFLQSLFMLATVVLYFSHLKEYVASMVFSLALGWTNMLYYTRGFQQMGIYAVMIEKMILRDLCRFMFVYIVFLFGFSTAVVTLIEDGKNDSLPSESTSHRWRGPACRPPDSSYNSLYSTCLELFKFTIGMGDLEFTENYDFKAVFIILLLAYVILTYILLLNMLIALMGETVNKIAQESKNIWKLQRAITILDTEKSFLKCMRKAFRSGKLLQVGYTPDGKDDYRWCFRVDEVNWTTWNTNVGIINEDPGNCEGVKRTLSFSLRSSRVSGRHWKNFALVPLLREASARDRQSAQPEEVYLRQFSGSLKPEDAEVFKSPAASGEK

Row | Compound | IC50 | % Inhibition @ 1 μM
1 | CC(C)(C)c1ccc(Nc2ncnc3c2CCN(c2ncccc2C(F)(F)F)C3)cc1.Cl [Example 4, N-(4-tert-Butylphenyl)-7-(3-(trifluoromethyl)pyridin-2-yl)-5,6,7,8-tetrahydropyrido[3,4-d]pyrimidin-4-amine hydrochloride] | < 100 nM | ++++ (compound exhibited 76% or greater inhibition of calcium ion influx induced by proton stimulation)
2 | COCc1nc2c(c(Nc3ccc(C(C)(C)C)cc3)n1)CCN(c1ncccc1C(F)(F)F)C2.Cl [Example 6, (4-tert-Butyl-phenyl)-[2-methoxymethyl-7-(3-trifluoromethyl-pyridin-2-yl)-5,6,7,8-tetrahydro-pyrido[3,4-d]pyrimidin-4-yl]-amine hydrochloride] | < 100 nM | ++++ (compound exhibited 76% or greater inhibition of calcium ion influx induced by proton stimulation)
3 | Fc1cccnc1N1CCc2c(ncnc2Nc2ccc(C(F)(F)F)cc2)C1 [Example 11, [7-(3-Fluoro-pyridin-2-yl)-5,6,7,8-tetrahydro-pyrido[3,4-d]pyrimidin-4-yl]-(4-trifluoromethyl-phenyl)-amine] | 101 to 500 nM | ++++ (compound exhibited 76% or greater inhibition of calcium ion influx induced by proton stimulation)
4 | CC(C)(C)c1ccc(Nc2nc(CN3CCOCC3)nc3c2CCN(c2ncccc2Cl)C3)cc1 [Example 13, (4-tert-Butyl-phenyl)-[7-(3-chloro-pyridin-2-yl)-2-morpholin-4-ylmethyl-5,6,7,8-tetrahydro-pyrido[3,4-d]pyrimidin-4-yl]-amine] | – | ++ (compound exhibited 26-50% inhibition of calcium ion influx induced by proton stimulation)
5 | CS(=O)(=O)c1cccnc1N1CCc2c(ncnc2Nc2ccc(OC(F)F)cc2)C1 [Example 14, N-(4-(Difluoromethoxy)phenyl)-5,6,7,8-tetrahydro-7-(3-(methylsulfonyl)pyridin-2-yl)pyrido[3,4-d]pyrimidin-4-amine] | – | + (compound exhibited 0-25% inhibition of calcium ion influx induced by proton stimulation)
6 | FC(F)Oc1ccc(Nc2ncnc3c2CCN(c2ncccc2Cl)C3)cc1 [Example 15, 7-(3-Chloropyridin-2-yl)-N-(4-(difluoromethoxy)phenyl)-5,6,7,8-tetrahydropyrido[3,4-d]pyrimidin-4-amine] | 101 to 500 nM | +++ (compound exhibited 51-75% inhibition of calcium ion influx induced by proton stimulation)
7 | CC(C)S(=O)(=O)c1cccnc1N1CCc2c(ncnc2Nc2ccc(C(F)(F)F)cc2)C1 [Example 16, N-(4-(Trifluoromethyl)phenyl)-5,6,7,8-tetrahydro-7-(3-(isopropylsulfonyl)pyridin-2-yl)pyrido[3,4-d]pyrimidin-4-amine] | > 1000 nM | –
8 | Nc1nc2c(c(Nc3ccc(C(F)(F)F)cc3)n1)CCN(c1ncccc1Cl)C2 [Example 17, 7-(3-Chloro-pyridin-2-yl)-N^4-(4-trifluoromethyl-phenyl)-5,6,7,8-tetrahydro-pyrido[3,4-d]pyrimidine-2,4-diamine] | – | ++++ (compound exhibited 76% or greater inhibition of calcium ion influx induced by proton stimulation)
9 | Clc1cccnc1N1CCc2c(ncnc2Nc2ccccc2)C1 [Example 18, 7-(3-Chloropyridin-2-yl)-N-(phenyl)-5,6,7,8-tetrahydropyrido[3,4-d]pyrimidin-4-amine] | > 1000 nM | + (compound exhibited 0-25% inhibition of calcium ion influx induced by proton stimulation)
10 | Cc1cccc(N2CCc3c(ncnc3Nc3ccc4c(c3)OCCO4)C2)c1 [Example 36, (2,3-Dihydro-benzo[1,4]dioxin-6-yl)-(7-m-tolyl-5,6,7,8-tetrahydro-pyrido[3,4-d]pyrimidin-4-yl)-amine] | – | ++ (compound exhibited 26-50% inhibition of calcium ion influx induced by proton stimulation)
11 | Clc1ccc(Nc2ncnc3c2CCN(c2ncccc2Cl)C3)cc1Cl [Example 42, N-(3,4-Dichlorophenyl)-7-(3-chloropyridin-2-yl)-5,6,7,8-tetrahydropyrido[3,4-d]pyrimidin-4-amine] | – | ++ (compound exhibited 26-50% inhibition of calcium ion influx induced by proton stimulation)
12 | CC(C)(C)c1ccc(Nc2ncnc3c2CCN(c2ncccc2Cl)C3)cn1 [Example 49, N-(6-tert-Butylpyridin-3-yl)-7-(3-chloropyridin-2-yl)-5,6,7,8-tetrahydropyrido[3,4-d]pyrimidin-4-amine] | – | ++++ (compound exhibited 76% or greater inhibition of calcium ion influx induced by proton stimulation)
13 | FC(F)(F)c1cccc(CCNc2ncnc3c2CCN(c2ncccc2Cl)C3)c1 [Example 50, N-(3-(Trifluoromethyl)phenethyl)-7-(3-chloropyridin-2-yl)-5,6,7,8-tetrahydropyrido[3,4-d]pyrimidin-4-amine] | – | + (compound exhibited 0-25% inhibition of calcium ion influx induced by proton stimulation)
14 | Clc1cccnc1N1CCc2c(ncnc2NCCCc2ccccc2)C1 [Example 51, 7-(3-Chloropyridin-2-yl)-5,6,7,8-tetrahydro-N-(3-phenylpropyl)pyrido[3,4-d]pyrimidin-4-amine] | – | + (compound exhibited 0-25% inhibition of calcium ion influx induced by proton stimulation)
15 | Clc1cccnc1N1CCc2c(ncnc2NCCOc2ccccc2)C1 [Example 52, 7-(3-Chloropyridin-2-yl)-5,6,7,8-tetrahydro-N-(2-phenoxyethyl)pyrido[3,4-d]pyrimidin-4-amine] | – | + (compound exhibited 0-25% inhibition of calcium ion influx induced by proton stimulation)

Continued, in another order:

Row | IC50 | Compound | % Inhibition @ 1 μM
16 | > 1000 nM | Fc1ccc(Nc2ncnc3c2CCN(c2ncccc2Cl)C3)cc1 [Example 19, 7-(3-Chloropyridin-2-yl)-N-(4-fluorophenyl)-5,6,7,8-tetrahydropyrido[3,4-d]pyrimidin-4-amine] | + (compound exhibited 0-25% inhibition of calcium ion influx induced by proton stimulation)
17 | 101 to 500 nM | CS(=O)(=O)c1cccnc1N1CCc2c(ncnc2Nc2ccc(C(F)(F)F)nc2)C1 [Example 21] | +++ (compound exhibited 51-75% inhibition of calcium ion influx induced by proton stimulation)
18 | 101 to 500 nM | CSc1nc2c(c(Nc3ccc(C(F)(F)F)cc3)n1)CCN(c1ncccc1Cl)C2 [Example 24, [7-(3-Chloro-pyridin-2-yl)-2-methylsulfanyl-5,6,7,8-tetrahydro-pyrido[3,4-d]pyrimidin-4-yl]-(4-trifluoromethyl-phenyl)-amine] | –
19 | 101 to 500 nM | COc1nc2c(c(Nc3ccc(C(F)(F)F)cc3)n1)CCN(c1ncccc1Cl)C2 [Example 27, 7-(3-Chloropyridin-2-yl)-N-(4-(trifluoromethyl)phenyl)-5,6,7,8-tetrahydro-2-methoxypyrido[3,4-d]pyrimidin-4-amine] | –
20 | 101 to 500 nM | c1ccc(CN2CCc3c(ncnc3Nc3cnc4ccccc4c3)C2)cc1 [Example 38, 7-Benzyl-5,6,7,8-tetrahydro-N-(quinolin-3-yl)pyrido[3,4-d]pyrimidin-4-amine] | –
21 | > 1000 nM | Clc1ccc(CCNc2ncnc3c2CCN(c2ncccc2Cl)C3)cc1 [Example 40, N-(4-Chlorophenethyl)-7-(3-chloropyridin-2-yl)-5,6,7,8-tetrahydropyrido[3,4-d]pyrimidin-4-amine] | +++ (compound exhibited 51-75% inhibition of calcium ion influx induced by proton stimulation)
22 | 101 to 500 nM | Clc1ccc(CNc2ncnc3c2CCN(c2ncccc2Cl)C3)cc1 [Example 41, N-(4-Chlorobenzyl)-7-(3-chloropyridin-2-yl)-5,6,7,8-tetrahydropyrido[3,4-d]pyrimidin-4-amine] | ++ (compound exhibited 26-50% inhibition of calcium ion influx induced by proton stimulation)
23 | > 1000 nM | FC(F)(F)c1ccc(Nc2ncnc3c2CCN(c2ccccc2)C3)cc1 [Example 44, 7-(Phenyl)-N-(4-(trifluoromethyl)phenyl)-5,6,7,8-tetrahydropyrido[3,4-d]pyrimidin-4-amine] | + (compound exhibited 0-25% inhibition of calcium ion influx induced by proton stimulation)
24 | 501 to 1000 nM | Cc1ccc(N2CCc3c(ncnc3Nc3ccc(C(F)(F)F)cc3)C2)cc1 [Example 47, 7-(p-Tolyl)-N-(4-(trifluoromethyl)phenyl)-5,6,7,8-tetrahydropyrido[3,4-d]pyrimidin-4-amine] | ++ (compound exhibited 26-50% inhibition of calcium ion influx induced by proton stimulation)
25 | < 100 nM | CC(C)(C#N)c1ccc(Nc2ncnc3c2CCN(c2ncccc2Cl)C3)cc1 [Example 56, 2-(4-(7-(3-Chloropyridin-2-yl)-5,6,7,8-tetrahydropyrido[3,4-d]pyrimidin-4-ylamino)phenyl)-2-methylpropanenitrile] | ++++ (compound exhibited 76% or greater inhibition of calcium ion influx induced by proton stimulation)

Reference: US7312330B2, “Bicycloheteroarylamine compounds as ion channel ligands and uses thereof” (Renovis, Inc., priority 2003, dated 2007)
